Laboratory results: the supplement of paper PMC10307832

Tests used:
Assay in all cases: relative viability (nuclei count vs DMSO), 5 days (fraction); higher = more cells survive
LCLC-97TM1 = test system: LCLC-97TM1
Method in brief: (§1)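 Lung cancer cell lines were pin-tool dosed in 1536-well plates on the day after seeding, with either a lone drug or a fixed anchor-drug dose plus five library-drug doses (not always all listed) in √10 steps. Nuclei were counted on 4× images after 5 days. Relative viability is the ratio of treated-well to vehicle-well nuclei counts, with each value a median of duplicate plates.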

NCI-H1793 = test system: NCI-H1793
Method in brief: as §1

NCI-H2087 = test system: NCI-H2087
Method in brief: as §1

NCI-H1944 = test system: NCI-H1944
Method in brief: as §1

LCLC-103H = test system: LCLC-103H
Method in brief: as §1

LXF-289 = test system: LXF-289
Method in brief: as §1

NCI-H727 = test system: NCI-H727
Method in brief: as §1

NCI-H1437 = test system: NCI-H1437
Method in brief: as §1

NCI-H1792 = test system: NCI-H1792
Method in brief: as §1

HCC-827 = test system: HCC-827
Method in brief: as §1

NCI-H2405 = test system: NCI-H2405
Method in brief: as §1

NCI-H2228 = test system: NCI-H2228
Method in brief: as §1

SK-LU-1 = test system: SK-LU-1
Method in brief: as §1

RERF-LC-KJ = test system: RERF-LC-KJ
Method in brief: as §1

NCI-H1395 = test system: NCI-H1395
Method in brief: as §1

BEN = test system: BEN
Method in brief: as §1

CAL-12T = test system: CAL-12T
Method in brief: as §1

NCI-H3122 = test system: NCI-H3122
Method in brief: as §1

NCI-H647 = test system: NCI-H647
Method in brief: as §1

201T = test system: 201T
Method in brief: as §1

NCI-H322M = test system: NCI-H322M
Method in brief: as §1

`O=c1cc(-c2cccc3c2Sc2ccccc2S3)oc(N2CCOCC2)c1` + Cc1nc(NC(=O)N2CCC[C@H]2C(N)=O)sc1-c1ccnc(C(C)(C)C(F)(F)F)c1 [Alpelisib] (partner 2 µM) was tested, and the relative viability (LCLC-97TM1; first compound 0.08 µM) was 0.238, the relative viability (LCLC-97TM1; first compound 0.253 µM) was 0.27 and the relative viability (LCLC-97TM1; first compound 0.8 µM) was 0.323. For the same molecule, the relative viability (LCLC-97TM1; first compound 2.53 µM) was 0.205, the relative viability (LCLC-97TM1; first compound 8 µM) was 0.218 and the relative viability (NCI-H1793; first compound 0.08 µM) was 0.498. It also gave a relative viability (NCI-H1793; first compound 0.253 µM) of 0.782, a relative viability (NCI-H1793; first compound 0.8 µM) of 0.692 and a relative viability (NCI-H1793; first compound 2.53 µM) of 0.55. For the same molecule, the relative viability (NCI-H1793; first compound 8 µM) was 0.689, the relative viability (NCI-H2087; first compound 0.08 µM) was 1.22 and the relative viability (NCI-H2087; first compound 0.253 µM) was 1.19. For the same molecule, the relative viability (NCI-H2087; first compound 0.8 µM) was 1.09, the relative viability (NCI-H2087; first compound 2.53 µM) was 1.12 and the relative viability (NCI-H2087; first compound 8 µM) was 1.03. For the same molecule, the relative viability (NCI-H1944; first compound 0.08 µM) was 0.793, the relative viability (NCI-H1944; first compound 0.253 µM) was 0.939 and the relative viability (NCI-H1944; first compound 0.8 µM) was 0.736. The relative viability (NCI-H1944; first compound 8 µM) was 0.751, the relative viability (LCLC-103H; first compound 0.08 µM) was 0.994 and the relative viability (LCLC-103H; first compound 0.253 µM) was 1.06. The relative viability (LCLC-103H; first compound 0.8 µM) was 0.837, the relative viability (LCLC-103H; first compound 2.53 µM) was 0.971 and the relative viability (LCLC-103H; first compound 8 µM) was 0.963. For the same molecule, the relative viability (LXF-289; first compound 0.08 µM) was 1.1, the relative viability (LXF-289; first compound 0.253 µM) was 1.07 and the relative viability (LXF-289; first compound 0.8 µM) was 1.14. It also gave a relative viability (LXF-289; first compound 2.53 µM) of 1.01, a relative viability (LXF-289; first compound 8 µM) of 1.07 and a relative viability (NCI-H727; first compound 0.253 µM) of 0.553. The relative viability (NCI-H727; first compound 2.53 µM) was 0.47, the relative viability (NCI-H727; first compound 8 µM) was 0.761 and the relative viability (NCI-H1437; first compound 0.08 µM) was 1.07. For the same molecule, the relative viability (NCI-H1437; first compound 0.253 µM) was 1.08, the relative viability (NCI-H1437; first compound 0.8 µM) was 1.15 and the relative viability (NCI-H1437; first compound 2.53 µM) was 0.989. It also gave a relative viability (NCI-H1437; first compound 8 µM) of 1.08, a relative viability (NCI-H1792; first compound 0.253 µM) of 0.722 and a relative viability (NCI-H1792; first compound 0.8 µM) of 0.741. For the same molecule, the relative viability (NCI-H1792; first compound 2.53 µM) was 0.674, the relative viability (NCI-H1792; first compound 8 µM) was 0.712 and the relative viability (HCC-827; first compound 0.08 µM) was 0.957. For the same molecule, the relative viability (HCC-827; first compound 0.253 µM) was 1.02, the relative viability (HCC-827; first compound 0.8 µM) was 1.01 and the relative viability (HCC-827; first compound 2.53 µM) was 0.826. For the same molecule, the relative viability (HCC-827; first compound 8 µM) was 0.979, the relative viability (NCI-H2405; first compound 0.08 µM) was 0.749 and the relative viability (NCI-H2405; first compound 0.253 µM) was 0.777. It also gave a relative viability (NCI-H2405; first compound 0.8 µM) of 0.792, a relative viability (NCI-H2405; first compound 2.53 µM) of 0.73 and a relative viability (NCI-H2405; first compound 8 µM) of 0.614. For the same molecule, the relative viability (NCI-H2228; first compound 0.08 µM) was 0.75, the relative viability (NCI-H2228; first compound 0.253 µM) was 0.846 and the relative viability (NCI-H2228; first compound 0.8 µM) was 0.828. It also gave a relative viability (NCI-H2228; first compound 2.53 µM) of 0.561, a relative viability (NCI-H2228; first compound 8 µM) of 0.737 and a relative viability (SK-LU-1; first compound 0.08 µM) of 1.03. For the same molecule, the relative viability (SK-LU-1; first compound 0.253 µM) was 1.12, the relative viability (SK-LU-1; first compound 0.8 µM) was 1.26 and the relative viability (SK-LU-1; first compound 2.53 µM) was 0.991. For the same molecule, the relative viability (SK-LU-1; first compound 8 µM) was 0.977, the relative viability (RERF-LC-KJ; first compound 0.08 µM) was 0.83 and the relative viability (RERF-LC-KJ; first compound 0.253 µM) was 0.917. It also gave a relative viability (RERF-LC-KJ; first compound 0.8 µM) of 0.824, a relative viability (RERF-LC-KJ; first compound 2.53 µM) of 0.741 and a relative viability (RERF-LC-KJ; first compound 8 µM) of 0.939. The relative viability (NCI-H1395; first compound 0.08 µM) was 1.13, the relative viability (NCI-H1395; first compound 0.253 µM) was 1.13 and the relative viability (NCI-H1395; first compound 0.8 µM) was 1.19. For the same molecule, the relative viability (NCI-H1395; first compound 2.53 µM) was 0.907, the relative viability (NCI-H1395; first compound 8 µM) was 1.05 and the relative viability (BEN; first compound 0.08 µM) was 0.912. For the same molecule, the relative viability (BEN; first compound 0.253 µM) was 1.06, the relative viability (BEN; first compound 0.8 µM) was 1.32 and the relative viability (BEN; first compound 2.53 µM) was 1. For the same molecule, the relative viability (BEN; first compound 8 µM) was 1.46, the relative viability (CAL-12T; first compound 0.08 µM) was 1.17 and the relative viability (CAL-12T; first compound 0.253 µM) was 1.28. It also gave a relative viability (CAL-12T; first compound 0.8 µM) of 1.56, a relative viability (CAL-12T; first compound 2.53 µM) of 1.1 and a relative viability (CAL-12T; first compound 8 µM) of 0.724. It also gave a relative viability (NCI-H3122; first compound 0.08 µM) of 0.731, a relative viability (NCI-H3122; first compound 0.253 µM) of 0.902 and a relative viability (NCI-H3122; first compound 0.8 µM) of 0.796. The relative viability (NCI-H3122; first compound 2.53 µM) was 0.746, the relative viability (NCI-H3122; first compound 8 µM) was 0.881 and the relative viability (NCI-H647; first compound 0.08 µM) was 1.4. The relative viability (NCI-H647; first compound 0.253 µM) was 1.47, the relative viability (NCI-H647; first compound 0.8 µM) was 1.31 and the relative viability (NCI-H647; first compound 2.53 µM) was 0.869. It also gave a relative viability (NCI-H647; first compound 8 µM) of 0.977, a relative viability (201T; first compound 0.08 µM) of 0.98 and a relative viability (201T; first compound 0.253 µM) of 1.04. It also gave a relative viability (201T; first compound 0.8 µM) of 1.02, a relative viability (201T; first compound 2.53 µM) of 0.953 and a relative viability (201T; first compound 8 µM) of 0.913. For the same molecule, the relative viability (NCI-H322M; first compound 0.08 µM) was 0.784, the relative viability (NCI-H322M; first compound 0.253 µM) was 0.79 and the relative viability (NCI-H322M; first compound 0.8 µM) was 0.79. For the same molecule, the relative viability (NCI-H322M; first compound 2.53 µM) was 0.964 and the relative viability (NCI-H322M; first compound 8 µM) was 0.838.
